Patent EP2970215B1, “PYRROLIDINE DERIVATIVES, PHARMACEUTICAL COMPOSITIONS CONTAINING THEM, AND THEIR USE IN THERAPY” (AbbVie Deutschland GmbH & Co. KG, priority 2013, dated 2014)
pKi: −log10 of the molar value.

target: T1, human GlyT1c transporter (Homo sapiens, UniProt P48067); experiment: Radioligand binding assay using recombinant CHO cell membranes expressing human GlyT1; conditions: radioligand binding to human GlyT1c transporter-expressing membranes
T1 construct: expressed in transfected cells; host or cells: CHO cells (recombinant; line hGlyT1c_5_CHO is named for the uptake assay)
T1 sequence (P48067 1-706): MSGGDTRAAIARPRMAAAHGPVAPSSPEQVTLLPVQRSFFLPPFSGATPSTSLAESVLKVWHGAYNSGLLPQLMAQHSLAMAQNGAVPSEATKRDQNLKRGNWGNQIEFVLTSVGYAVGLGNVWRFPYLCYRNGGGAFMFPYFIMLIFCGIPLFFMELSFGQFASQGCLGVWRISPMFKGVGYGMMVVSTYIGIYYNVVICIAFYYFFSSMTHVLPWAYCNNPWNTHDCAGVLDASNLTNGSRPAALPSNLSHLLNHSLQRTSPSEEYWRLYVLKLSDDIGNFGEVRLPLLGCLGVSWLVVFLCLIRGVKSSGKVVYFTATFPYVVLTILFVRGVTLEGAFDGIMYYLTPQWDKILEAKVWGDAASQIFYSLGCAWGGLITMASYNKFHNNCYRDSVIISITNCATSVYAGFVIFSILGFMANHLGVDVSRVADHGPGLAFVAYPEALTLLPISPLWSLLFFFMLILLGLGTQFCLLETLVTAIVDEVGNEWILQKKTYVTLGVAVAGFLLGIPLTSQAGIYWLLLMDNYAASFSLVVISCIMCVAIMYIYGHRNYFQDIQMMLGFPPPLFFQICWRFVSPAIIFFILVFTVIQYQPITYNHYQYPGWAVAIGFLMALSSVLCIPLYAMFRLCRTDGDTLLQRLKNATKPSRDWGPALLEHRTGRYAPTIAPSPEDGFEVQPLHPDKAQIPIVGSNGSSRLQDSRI
Source text: 2. Radioligand binding assays using recombinant CHO cell membranes expressing human GlyT1: […]

| Compound | pKi |
| --- | --- |
| COC[C@H](C)NC[C@@H]1CN(S(=O)(=O)c2cn(C)cn2)C[C@H]1c1ccc(F)cc1 (mixture of isomers) [Example 596, (2S)-N-({trans-4-(4-fluorophenyl)-1-[(1-methyl-1H-imidazol-4-yl)sulfonyl]pyrrolidin-3-yl}methyl)-1-methoxypropan-2-amine] | ≥ 5.00 |
| Cn1cnc(S(=O)(=O)N2C[C@@H]([C@@H]3CCCOC3)[C@H](Nc3ccc(F)c(Cl)c3)C2)c1 (mixture of isomers) [Example 789, Trans-N-(3-chloro-4-fluorophenyl)-1-[(1-methyl-1H-imidazol-4-yl)sulfonyl]-4-[(3S)-tetrahydro-2H-pyran-3-yl]pyrrolidin-3-amine] | ≥ 6.00 |
| Cn1cnc(S(=O)(=O)N2C[C@@H]([C@@H]3CCCOC3)[C@H](Nc3cccc(OCc4ccccc4)c3)C2)c1 (mixture of isomers) [Example 794, Trans-N-[3-(benzyloxy)phenyl]-1-[(1-methyl-1H-imidazol-4-yl)sulfonyl]-4-[(3S)-tetrahydro-2H-pyran-3-yl]pyrrolidin-3-amine] | ≥ 6.00 |
| COc1ccc([C@@H]2CN(S(=O)(=O)c3cn(C)cn3)C[C@H]2NC(=O)c2cccc(C(F)(F)F)c2Cl)cc1 (relative stereo) [Example 2, 2-chloro-N-{trans-4-(4-methoxyphenyl)-1-[(1-methyl-1H-imidazol-4-yl)sulfonyl]pyrrolidin-3-yl}-3-(trifluoromethyl)benzamide] | ≥ 6.00 |
| CS(=O)(=O)N1C[C@@H](NC(=O)c2cccc(C(F)(F)F)c2Cl)[C@H](c2cc(F)c(F)cc2F)C1 (relative stereo) [Example 4, 2-chloro-N-[trans-1-(methylsulfonyl)-4-(2,4,5-trifluorophenyl)pyrrolidin-3-yl]-3-(trifluoromethyl)benzamide] | ≤ 5.00 |
| Cn1cnc(S(=O)(=O)N2C[C@@H](NC(=O)c3cccc(C(F)(F)F)c3Cl)[C@H](c3ccc(Cl)cc3)C2)c1 (relative stereo) [Example 13, 2-chloro-N-{trans-4-(4-chlorophenyl)-1-[(1-methyl-1H-imidazol-4-yl)sulfonyl]pyrrolidin-3-yl}-3-(trifluoromethyl)benzamide] | ≥ 6.00 |
| Cn1cnc(S(=O)(=O)N2C[C@@H](NC(=O)c3ccccc3Cl)[C@H](c3ccccc3)C2)c1 (relative stereo) [Example 14, 2-chloro-N-{trans-1-[(1-methyl-1H-imidazol-4-yl)sulfonyl]-4-phenylpyrrolidin-3-yl}benzamide] | ≥ 6.00 |
| Cn1cnc(S(=O)(=O)N2C[C@@H](NC(=O)c3cccc(Cl)c3)[C@H](c3ccccc3)C2)c1 (relative stereo) [Example 15, 3-chloro-N-{trans-1-[(1-methyl-1H-imidazol-4-yl)sulfonyl]-4-phenylpyrrolidin-3-yl}benzamide] | ≥ 5.00 |
| Cn1cnc(S(=O)(=O)N2C[C@@H](NC(=O)c3ccc(Cl)cc3)[C@H](c3ccccc3)C2)c1 (relative stereo) [Example 16, 4-chloro-N-{trans-1-[(1-methyl-1H-imidazol-4-yl)sulfonyl]-4-phenylpyrrolidin-3-yl}benzamide] | ≥ 6.00 |
| Cn1cnc(S(=O)(=O)N2C[C@@H](NC(=O)c3ccccc3F)[C@H](c3ccccc3)C2)c1 (relative stereo) [Example 17, 2-fluoro-N-{trans-1-[(1-methyl-1H-imidazol-4-yl)sulfonyl]-4-phenylpyrrolidin-3-yl}benzamide] | ≥ 5.00 |
| Cn1cnc(S(=O)(=O)N2C[C@@H](NC(=O)c3cccc(F)c3)[C@H](c3ccccc3)C2)c1 (relative stereo) [Example 18, 3-fluoro-N-{trans-1-[(1-methyl-1H-imidazol-4-yl)sulfonyl]-4-phenylpyrrolidin-3-yl}benzamide] | ≥ 5.00 |
| Cn1cnc(S(=O)(=O)N2C[C@@H](NC(=O)c3ccc(F)cc3)[C@H](c3ccccc3)C2)c1 (relative stereo) [Example 19, 4-fluoro-N-{trans-1-[(1-methyl-1H-imidazol-4-yl)sulfonyl]-4-phenylpyrrolidin-3-yl}benzamide] | ≥ 5.00 |
| COc1ccccc1C(=O)N[C@@H]1CN(S(=O)(=O)c2cn(C)cn2)C[C@H]1c1ccccc1 (relative stereo) [Example 20, 2-methoxy-N-{trans-1-[(1-methyl-1H-imidazol-4-yl)sulfonyl]-4-phenylpyrrolidin-3-yl}benzamide] | ≥ 5.00 |

Further lines, results first:

| pKi | Compound |
| --- | --- |
| ≥ 7.00 | Cn1cnc(S(=O)(=O)N2C[C@@H]([C@@H]3CCCOC3)[C@H](Nc3cccc(OC(F)(F)F)c3)C2)c1 (mixture of isomers) [Example 784, trans-1-[(1-methyl-1H-imidazol-4-yl)sulfonyl]-4-[(3S)-tetrahydro-2H-pyran-3-yl]-N-[3-(trifluoromethoxy)phenyl]pyrrolidin-3-amine] |
| ≥ 6.00 | Cn1cnc(S(=O)(=O)N2C[C@@H]([C@@H]3CCCOC3)[C@H](Nc3cccc(Oc4ccccc4)c3)C2)c1 (mixture of isomers) [Example 786, trans-1-[(1-methyl-1H-imidazol-4-yl)sulfonyl]-N-(3-phenoxyphenyl)-4-[(3S)-tetrahydro-2H-pyran-3-yl]pyrrolidin-3-amine] |
| ≥ 6.00 | Cn1cnc(S(=O)(=O)N2C[C@@H]([C@@H]3CCCOC3)[C@H](Nc3cccc(-c4ccccc4)c3)C2)c1 (mixture of isomers) [Example 787, trans-N-(biphenyl-3-yl)-1-[(1-methyl-1H-imidazol-4-yl)sulfonyl]-4-[(3S)-tetrahydro-2H-pyran-3-yl]pyrrolidin-3-amine] |
| ≥ 6.00 | Cn1cnc(S(=O)(=O)N2C[C@@H]([C@@H]3CCCOC3)[C@H](Nc3ccc(F)c(OC(F)(F)F)c3)C2)c1 (mixture of isomers) [Example 788, Trans-N-[4-fluoro-3-(trifluoromethoxy)phenyl]-1-[(1-methyl-1H-imidazol-4-yl)sulfonyl]-4-[(3S)-tetrahydro-2H-pyran-3-yl]pyrrolidin-3-amine] |
| ≥ 6.00 | Cc1cc(N[C@@H]2CN(S(=O)(=O)c3cn(C)cn3)C[C@H]2[C@@H]2CCCOC2)ccc1F (mixture of isomers) [Example 790, Trans-N-(4-fluoro-3-methylphenyl)-1-[(1-methyl-1H-imidazol-4-yl)sulfonyl]-4-[(3S)-tetrahydro-2H-pyran-3-yl]pyrrolidin-3-amine] |
| ≥ 6.00 | Cn1cnc(S(=O)(=O)N2C[C@@H]([C@@H]3CCCOC3)[C@H](Nc3ccc(F)c(C(F)(F)F)c3)C2)c1 (mixture of isomers) [Example 791, Trans-N-[4-fluoro-3-(trifluoromethyl)phenyl]-1-[(1-methyl-1H-imidazol-4-yl)sulfonyl]-4-[(3S)-tetrahydro-2H-pyran-3-yl]pyrrolidin-3-amine] |
| ≥ 7.00 | Cn1cnc(S(=O)(=O)N2C[C@@H](NC(=O)c3cccc(C(F)(F)F)c3Cl)[C@H](c3ccc(F)cc3)C2)c1 (relative stereo) [Example 3, 2-chloro-N-{trans-4-(4-fluorophenyl)-1-[(1-methyl-1H-imidazol-4-yl)sulfonyl]pyrrolidin-3-yl}-3-(trifluoromethyl)benzamide] |

same assay, conditions: radioligand binding, recombinant CHO cell membranes expressing human GlyT1c

| Compound | pKi |
| --- | --- |
| 2-[(1-methyl-1H-imidazol-4-yl)sulfonyl]-N-[4-(trifluoromethyl)pyridin-2-yl]-2,3,3a,8-tetrahydroindeno[1,2-c]pyrrol-8a(1H)-amine [Example 892] | ≥ 7.00 |
